Reference: patent US11192865B2, “Benzosulfonyl compounds” (Vivace Therapeutics, Inc., priority 2017, dated 2021)

Each molecule was assayed on 8XTBD luciferase reporter (assay: YAP Reporter Assay). Conditions: Homo sapiens, HEK-293T; HEK293T cells stably transfected with 8XTBD luciferase reporter and pRLTK; 24-hr incubation; starting from 3 μM, 1:3 dilution, 10 points; read-out: Firefly Luciferase IC50.
Format: cell-based
Method: HEK293T cells stably transfected with 8XTBD luciferase reporter and pRLTK in 384-well plates were treated with the test compounds, starting from 3 μM (final concentration in assay plate), 1:3 dilution, and 10 points in quadruplicates. Post 24-hr incubation with compounds at 37° C. and 5% CO2, cells were lysed and 8XTBD-driven firefly luciferase and control TK-driven renilla luciferase activities were measured using Promega Dual-Luciferase Reporter Assay System.
Reagents: The reagents used for this study are: DMEM: Invitrogen #11960077, Dual-Glo Luciferase Assay System: Promega-E2980, Puromycin Dihydrochloride: Invitrogen-A1113803, 384-well plate: PerkinElmer-6007480, L-GLUTAMINE: Invitrogen-25030164, Hygromycin B: Invitrogen-10687010, and Penicillin-Streptomycin: Merk-TMS-AB2-C
Media: The media used for this assay were: Culture Medium: DMEM+1 ug/mL puromycin+200 ug/mL hygromycin (with 10% FBS+1 mM L-glutamine); and Assay Medium: DMEM (with 10% FBS+1 mM L-glutamine+1×P/S).
Cell Plating: The appropriate media was warmed at 37° C. by water bath: Culture Medium, Assay Medium, 1* D-PBS, 0.05% trypsin-EDTA. The cells were trypsinized after removing all media, then washed with 1* sterile D-PBS and then with 2 ml 0.05% trypsin-EDTA. The cells were then incubated at RT for one minute. Then 10 ml/75 cm2 flask Assay Medium was added to each flask. Using a 10 ml pipette, the cells were then gently resuspended in the media, until the clumps completely disappeared. The cells were then transferred into 50 ml centrifuge tubes and were centrifuged at 800 rpm for 5 mins. The medium was removed and the cells were resuspended with Assay Medium. An aliquot of cells was used to count the cell density (cells/ml). The cell suspension was then diluted with Assay Medium to a concentration of 6×10^4 cells/ml. 50 ul cells suspension was then plated to 384-well plate (PerkinElmer-6007480), 3×10^3 cells/well and the cells were incubated in an incubator at 37° C., 5% CO2.
Compound Treatment: In the afternoon (incubation of the plate with 3-4 hrs), the test compounds were added by Echo, starting from 3 uM (final concentration in the assay plate), 1:3 dilution, 10 points, quadruplicates. The plate was placed at 37° C., 5% CO2 incubator for 24 hrs.
Detection: The Dual-Glo Luciferase Reagent was prepared by transferring the contents of one bottle of Dual-Glo Luciferase Buffer to one bottle of Dual-Glo Luciferase Substrate to create the Dual-Glo Luciferase Reagent. Mixing was performed by inversion until the substrate was thoroughly dissolved. After mixing, the reagent was aliquoted into 15 ml tubes. In the afternoon (24 hrs post compound treatment), the DMEM+ medium in the 384 well plates were aspirated by Microplate Washer.
Measuring firefly luciferase activity: 20 ul Dual-Glo Luciferase Reagent was added to the 384-well plates. The plates were protected from light to prevent interference with the assay. The plates were shaken for 1 min followed centrifuging plates at 1000 rpm for 30 seconds. After waiting at least 10 minutes, the firefly luminescence was measured by Envision.
Measuring renilla luciferase activity: 20 ul Stop-Glo Reagent was added to the 384-well plates. The plates were shaken for 1 min and then centrifuged at 1000 rpm for 30 seconds. After waiting at least 10 minutes, the renilla luminescence was measured by Envision.
Compound IC50 and maximum inhibition on the firefly luciferase and renilla luciferase activities were reported separately.

IC50, 1 to 3 µM:
CNS(=O)(=O)c1ccc(NC2CCCCC2)c(-c2ncccc2OC)c1 [Compound 80, 4-(cyclohexylamino)-3-(3-methoxypyridin-2-yl)-N-methylbenzenesulfonamide]
CNS(=O)(=O)c1ccc(NC2CCCCC2)c(-c2nnn(C3CCN(C(C)C)C3)n2)c1 (centres unmarked) [Compound 36, 4-(cyclohexylamino)-3-(2-(1-isopropylpyrrolidin-3-yl)-2H-tetrazol-5-yl)-N-methylbenzenesulfonamide]
CNS(=O)(=O)c1ccc(Nc2cccc(C(F)(F)F)c2)c(-c2ccnc(N)c2)c1 [Compound 152, 3-(2-Aminopyridin-4-yl)-N-methyl-4-((3-(trifluoromethyl)phenyl)amino) benzenesulfonamide]
CNc1cccc(-c2cc(S(=O)(=O)NC)ccc2NC2CCCCC2)n1 [Compound 85, 4-(cyclohexylamino)-N-methyl-3-(6-(methylamino)pyridin-2-yl)benzenesulfonamide]

IC50, 0.1 to 1 µM:
CNS(=O)(=O)c1ccc(NC2CCCCC2)c(-c2nnn(C3CCN(c4cccnc4)C3)n2)c1 (centres unmarked) [Compound 68, 4-(cyclohexylamino)-N-methyl-3-(2-(1-(pyridin-3-yl)pyrrolidin-3-yl)-2H-tetrazol-5-yl)benzenesulfonamide]
CNS(=O)(=O)c1ccc(NC2CCCCC2)c(-c2nnn(C3CCN(C(C)=O)CC3)n2)c1 [Compound 31, 3-(2-(1-acetylpiperidin-4-yl)-2H-tetrazol-5-yl)-4-(cyclohexylamino)-N-methylbenzenesulfonamide]
CNS(=O)(=O)c1ccc(Nc2cccc(Oc3ccccc3)c2)c(-c2nnn(C)n2)c1 [Compound 134, N-methyl-3-(2-methyltetrazol-5-yl)-4-(3-phenoxyanilino)benzenesulfonamide]
CNS(=O)(=O)c1ccc(NC2CCCCC2)c(-c2nnn(CC(F)(F)F)n2)c1 [Compound 39, 4-(cyclohexylamino)-N-methyl-3-(2-(2,2,2-trifluoroethyl)-2H-tetrazol-5-yl)benzenesulfonamide]
CNS(=O)(=O)c1ccc(Nc2cc(C(F)(F)F)cc(C(F)(F)F)c2)c(-c2cn(C)cn2)c1 [Compound 146, 4-[3,5-Bis(trifluoromethyl)anilino]-N-methyl-3-(1-methylimidazol-4-yl)benzenesulfonamide]
CNS(=O)(=O)c1ccc(Nc2cc(F)cc(F)c2)c(-c2nnn(C)n2)c1 [Compound 108, 4-((3,5-difluorophenyl)amino)-N-methyl-3-(2-methyl-2H-tetrazol-5-yl)benzenesulfonamide]

IC50, > 3 µM:
CNS(=O)(=O)c1ccc(NC2CCCCC2)c(-c2nnn(C3CCN(C(=O)OC(C)(C)C)CC3)n2)c1 [Compound 28, tert-butyl 4-(5-(2-(cyclohexylamino)-5-(N-methylsulfamoyl)phenyl)-2H-tetrazol-2-yl)piperidine-1-carboxylate]
CNS(=O)(=O)c1ccc(NC2CCCCC2)c(-c2ncccc2C)c1 [Compound 78, 4-(cyclohexylamino)-N-methyl-3-(3-methylpyridin-2-yl)benzenesulfonamide]
CNS(=O)(=O)c1ccc(NC2CCCCC2)c(-c2nnn(C3CN(S(C)(=O)=O)C3)n2)c1 [Compound 50, 4-(cyclohexylamino)-N-methyl-3-(2-(1-(methylsulfonyl)azetidin-3-yl)-2H-tetrazol-5-yl)benzenesulfonamide]
CNS(=O)(=O)c1ccc(Nc2cc(F)ccc2F)c(-c2nnnn2C)c1 [Compound 109, 4-((2,5-difluorophenyl)amino)-N-methyl-3-(1-methyl-1H-tetrazol-5-yl)benzenesulfonamide]
CS(=O)(=O)c1ccc(NC2CCCCC2)c(-n2ccnc2)c1 [Compound 11, N-cyclohexyl-2-(1H-imidazol-1-yl)-4-(methylsulfonyl)aniline]
CNS(=O)(=O)c1ccc(NC2CCCCC2)c(-c2nnn(C3CN(c4ccccc4)C3)n2)c1 [Compound 51, 4-(cyclohexylamino)-N-methyl-3-(2-(1-phenylazetidin-3-yl)-2H-tetrazol-5-yl)benzenesulfonamide]
CS(=O)(=O)c1ccc(NC2CCCCC2)c(-n2ccnn2)c1 [Compound 9, N-cyclohexyl-4-(methylsulfonyl)-2-(1H-1,2,3-triazol-1-yl)aniline]
CS(=O)(=O)c1ccc(NC2CCCCC2)c(-c2nn[nH]n2)c1 [Compound 4, N-cyclohexyl-4-(methylsulfonyl)-2-(2H-tetrazol-5-yl)aniline]

IC50, ≤ 0.1 µM:
CNS(=O)(=O)c1ccc(NC2CCCCC2)c(-c2nnn(C3CCC3)n2)c1 [Compound 17, 3-(2-cyclobutyl-2H-tetrazol-5-yl)-4-(cyclohexylamino)-N-methylbenzene sulfonamide]
CNS(=O)(=O)c1ccc(NC2CCCCC2)c(-n2nccn2)c1 [Compound 81, 4-(Cyclohexylamino)-N-methyl-3-(2H-1,2,3-triazol-2-yl)benzenesulfonamide]
CNS(=O)(=O)c1ccc(Nc2ccc(OC(F)(F)F)cc2)c(-c2nnn(C)n2)c1 [Compound 103, N-methyl-3-(2-methyl-2H-tetrazol-5-yl)-4-((4-(trifluoromethoxy)phenyl)amino)benzenesulfonamide]
CNS(=O)(=O)c1ccc(Nc2cccc(OC(F)(F)F)c2)c(-c2nnn(C)n2)c1 [Compound 94, N-methyl-3-(2-methyl-2H-tetrazol-5-yl)-4-((3-(trifluoromethoxy)phenyl)amino)benzenesulfonamide]
CNS(=O)(=O)c1ccc(Nc2cccc(C(F)(F)F)c2)c(-c2nnn(Cc3ccccc3F)n2)c1 [Compound 136, 3-[2-[(2-Fluorophenyl)methyl]tetrazol-5-yl]-N-methyl-4-[3-(trifluoromethyl)anilino]benzene-sulfonamide]
CNS(=O)(=O)c1ccc(NC2CCCCC2)c(-c2ncccn2)c1 [Compound 56, 4-(cyclohexylamino)-N-methyl-3-(pyrimidin-2-yl)benzenesulfonamide]
CNS(=O)(=O)c1ccc(Nc2ccc(C(F)(F)F)cc2)c(-c2nnn(CCO)n2)c1 [Compound 116, 3-(2-(2-hydroxyethyl)-2H-tetrazol-5-yl)-N-methyl-4-((4-(trifluoromethyl)phenyl)amino)benzenesulfonamide]
CNS(=O)(=O)c1ccc(NC2CCCCC2)c(-c2ncccc2F)c1 [Compound 79, 4-(cyclohexylamino)-3-(3-fluoropyridin-2-yl)-N-methylbenzenesulfonamide]
CNS(=O)(=O)c1ccc(Nc2cccc(Cl)c2)c(-c2cn(C)cn2)c1 [Compound 143, 4-(3-Chloroanilino)-N-methyl-3-(1-methylimidazol-4-yl)benzenesulfonamide]
CNS(=O)(=O)c1ccc(Nc2c(F)cccc2F)c(-c2cn(C)cn2)c1 [Compound 149, 4-((2,6-Difluorophenyl)amino)-N-methyl-3-(1-methyl-1H-imidazol-4-yl)benzenesulfonamide]
CNS(=O)(=O)c1ccc(Nc2ccc(Cl)c(C(F)(F)F)c2)c(-c2cn(C)cn2)c1 [Compound 147, 4-[4-Chloro-3-(trifluoromethyl)anilino]-N-methyl-3-(1-methylimidazol-4-yl)benzenesulfonamide]
